The results in this text go back to paper PMC5835169 (Clinical microbiology and infection : the official …, 2017).

One data set has as its system P. aeruginosa P005. In kind it is cell-based. Conditions: MDR strain P005 isolated from cystic fibrosis patients.
Another data set has as its system P. aeruginosa P001. In kind it is cell-based. Conditions: MDR strain P001 isolated from cystic fibrosis patients.
The subject of another data set is P. aeruginosa P002. In kind it is cell-based. The following applies: MDR strain P002 isolated from cystic fibrosis patients.
A further data set relates to P. aeruginosa TRPA108. The class given is cell-based. The following applies: MDR strain TRPA108 isolated from cystic fibrosis patients.
For data set [1], the system named is differentiated primary HBE cells. The data set can be described thus: Transepithelial Electrical Resistance. The class given is cell-based, human. The following applies: apical, 24 hours after administration.
The next data set concerns P. aeruginosa P003. In kind it is cell-based. Conditions: MDR strain P003 isolated from cystic fibrosis patients.
For the next data set, the system named is P. aeruginosa TRPA111. The class given is cell-based. The following applies: MDR strain TRPA111 isolated from cystic fibrosis patients.
The subject of another data set is P. aeruginosa TRPA321. The class given is cell-based. The following applies: MDR strain TRPA321 isolated from cystic fibrosis patients.
The subject of the next data set is P. aeruginosa P004. In kind it is cell-based. Conditions: MDR strain P004 isolated from cystic fibrosis patients.
The next data set has as its system mouse lungs. The data set can be described thus: Pulmonary toxicity in uninfected mice. The class given is in vivo, C57BL/6J mice. The following applies: for pulmonary toxicity: 0.35 mg/kg i.t., total inflammatory cells, differential cell counts, inflammation-associated genes; for effect on cell differential and inflammatory mediators in the lungs: uninfected mice, 7µg i.t. (7 times the minimum effective dose), 24h.

A further data set concerns P. aeruginosa PAO1. In kind it is cell-based. Conditions: control strain PAO1 susceptible to antibiotics and AMPs.
Another data set relates to HBE cells. The data set can be described thus: Toxicity to HBE cells. The class given is cell-based, human. The following applies: 16µM.

The MIC is the smallest concentration in the dilution series that meets the test's criterion for growth inhibition.

≈ marks a conversion by molar mass, not a printed value. Where no end group is shown, it is not given here.

For `CC[C@H](C)[C@H](NC(=O)[C@H](CCCCN)NC(=O)[C@H](CCC(=O)O)NC(=O)[C@H](CCCCN)NC(=O)[C@H](CO)NC(=O)[C@H](CCCCN)NC(=O)[C@H](CCCNC(=N)N)NC(=O)[C@H](Cc1ccccc1)NC(=O)[C@H](Cc1ccccc1)NC(=O)[C@H](CC(=O)O)NC(=O)CNC(=O)[C@H](CC(C)C)NC(=O)[C@@H](N)CC(C)C)C(=O)NCC(=O)N[C@@H](CCCCN)C(=O)N[C@@H](CCC(=O)O)C(=O)N[C@@H](Cc1ccccc1)C(=O)N[C@@H](CCCCN)C(=O)N[C@@H](CCCNC(=N)N)C(=O)N[C@H](C(=O)N[C@H](C(=O)N[C@@H](CCC(N)=O)C(=O)N[C@@H](CCCNC(=N)N)C(=O)N[C@H](C(=O)N[C@@H](CCCCN)C(=O)N[C@@H](CC(=O)O)C(=O)N[C@@H](Cc1ccccc1)C(=O)N[C@@H](CC(C)C)C(=O)N[C@@H](CCCNC(=N)N)C(=O)N[C@@H](CC(N)=O)C(=O)N[C@@H](CC(C)C)C(=O)N[C@H](C(=O)N1CCC[C@H]1C(=O)N[C@@H](CCCNC(=N)N)C(=O)N[C@H](C(=O)N[C@@H](CCC(=O)O)C(=O)N[C@@H](CO)C(=O)O)[C@@H](C)O)C(C)C)[C@@H](C)CC)C(C)C)[C@@H](C)CC` [LL37, reference compound], the MIC with P. aeruginosa P005 turned out to be 8 µM (≈ 35.9 µg/mL); in the data set with P. aeruginosa P001 it was 32 µM (≈ 144 µg/mL); in the data set on P. aeruginosa P002, 32 µM (≈ 144 µg/mL); in the data set with P. aeruginosa TRPA108, 2 µM (≈ 8.99 µg/mL); in the data set on P. aeruginosa P003, 32 µM (≈ 144 µg/mL); against P. aeruginosa TRPA111, 2 µM (≈ 8.99 µg/mL). For the same molecule, the MIC in the data set with P. aeruginosa TRPA321 was found to be 32 µM (≈ 144 µg/mL); in the data set on P. aeruginosa P004, 8 µM (≈ 35.9 µg/mL). The “final reduction in TEER / recovery” value was 1/2 in data set [1] (32µM peptide in PBS) and 2/3 in [1] (64µM peptide in PBS). Also, in the data set with mouse lungs, the pulmonary toxicity result is “does not cause pulmonary toxicity”. Moreover, in the data set with mouse lungs, the “effect on cell differential and inflammatory mediators in the lungs” value is “no effect”.
As for RRWVRRVRRVWRRVVRVVRRWVRR [WLBU2], the MIC is given as 2 µM against P. aeruginosa P005; 6 µM in the data set with P. aeruginosa P001; 4 µM against P. aeruginosa P002; 1 µM with P. aeruginosa TRPA108; 6 µM with P. aeruginosa P003; 1 µM in the data set on P. aeruginosa TRPA111. Further, the MIC against P. aeruginosa TRPA321, against P. aeruginosa PAO1 and in the data set with P. aeruginosa P004 was 2 µM each time. Moreover, the “final reduction in TEER / recovery” value in data set [1] (32µM peptide in PBS) and in [1] (64µM peptide in PBS) was “completely recovered” in each case. The “toxicity to HBE cells” value in the data set with HBE cells is given as “not toxic”. Besides, the pulmonary toxicity entry with mouse lungs is on record as “does not cause pulmonary toxicity”. Moreover, in the data set with mouse lungs, the “effect on cell differential and inflammatory mediators in the lungs” value is “no effect”.
